BindingDB's records for doi:10.1021/jm00001a017 (Bristol-Myers Squibb Pharmaceutical Research Institute, 1995)

Each molecule was assayed against Voltage-dependent L-type calcium channel (Cavia porcellus) (assay: Displacement of [3H]nitrendipine from dihydropyridine receptor of guinea pig myocardial membranes).

Row | Structure (SMILES) | Kd [µM]
1 | CSC1=NC2=C(C(=O)OC2)C(c2cccc([N+](=O)[O-])c2SC)N1 (stereo unspecified) [2-Methylsulfanyl-4-(2-methylsulfanyl-3-nitro-phenyl)-4,7-dihydro-1H-furo[3,4-d]pyrimidin-5-one] | 13.7
2 | CSC1=NC(c2ccccc2SC)c2c(coc2O)N1 (stereo unspecified) [2-Methylsulfanyl-4-(2-methylsulfanyl-phenyl)-4,7-dihydro-1H-furo[3,4-d]pyrimidin-5-one] | 45.2
3 | CSC1=NC(c2cc([N+](=O)[O-])ccc2SC)C2=C(COC2=O)N1 (stereo unspecified) [2-Methylsulfanyl-4-(2-methylsulfanyl-5-nitro-phenyl)-4,7-dihydro-1H-furo[3,4-d]pyrimidin-5-one] | > 50
4 | CSC1=NC2c3ccccc3SCCCCCOC(=O)C2C(C)=N1 (stereo unspecified) [4-Methyl-2-methylsulfanyl-3,8,9,10,11,16b-hexahydro-7H-6-oxa-12-thia-1,3-diaza-dibenzo[a,c]cyclododecen-5-one] | 0.018
5 | COC(=O)C1C(C)=NC(SC)=NC1c1cccc([N+](=O)[O-])c1 (stereo unspecified) [6-Methyl-2-methylsulfanyl-4-(3-nitro-phenyl)-1,4-dihydro-pyrimidine-5-carboxylic acid methyl ester] | 0.48
6 | CSC1=NC(c2cccc([N+](=O)[O-])c2)C2=C(COC2=O)N1 (stereo unspecified) [2-Methylsulfanyl-4-(3-nitro-phenyl)-4,7-dihydro-1H-furo[3,4-d]pyrimidin-5-one] | 36.9
7 | CSC1=NC(C)=C2C(=O)OCCCCCSc3c(cccc3[N+](=O)[O-])C2N1 (stereo unspecified) [4-Methyl-2-methylsulfanyl-13-nitro-3,8,9,10,11,16b-hexahydro-7H-6-oxa-12-thia-1,3-diaza-dibenzo[a,c]cyclododecen-5-one] | 0.005

Other lines, results leading:

Row | Kd [µM] | Structure (SMILES)
8 | 2.7 | COC(=O)C1C(C)=NC(SC)=NC1c1cc([N+](=O)[O-])ccc1SC (stereo unspecified) [6-Methyl-2-methylsulfanyl-4-(2-methylsulfanyl-5-nitro-phenyl)-1,4-dihydro-pyrimidine-5-carboxylic acid methyl ester]
9 | > 50 | CCCCSc1ccccc1C1N=C(SC)Nc2coc(O)c21 (stereo unspecified) [4-(2-Butylsulfanyl-phenyl)-2-methylsulfanyl-4,7-dihydro-1H-furo[3,4-d]pyrimidin-5-one]
10 | 0.873 | CSC1=NC2C(=C(C)N1)C(=O)OCCCCCSc1ccc([N+](=O)[O-])cc12 (stereo unspecified) [4-Methyl-2-methylsulfanyl-15-nitro-3,8,9,10,11,16b-hexahydro-7H-6-oxa-12-thia-1,3-diaza-dibenzo[a,c]cyclododecen-5-one]
11 | 1.52 | COC(=O)C1C(C)=NC(SC)=NC1c1ccccc1SC (stereo unspecified) [6-Methyl-2-methylsulfanyl-4-(2-methylsulfanyl-phenyl)-1,4-dihydro-pyrimidine-5-carboxylic acid methyl ester]
